Test [1] has as its system Aβ total. As to the kind of experiment: Aβ total levels in H4 neuroglioma cells stably expressing human APP695 (MSD electrochemiluminescence). It counts as cell-based. To be noted: selectivity ratio vs. Aβtotal, Table 4a. A digest of the protocol:
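H4 cells expressing human APP695, plated near confluency, exposed 22 h at 37 °C to compounds over 30 μM–0.1 nM (0.5% DMSO final). Supernatant Aβ total quantified by MSD electrochemiluminescence immunoassay.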

Test [2] has as its target ABL1 (Homo sapiens, UniProt P00519). The test is described as follows: Z'-LYTE SelectScreen biochemical kinase assay ABL1.
Test [3] addresses CDK5/p35 (Homo sapiens, UniProt Q00535). As to the kind of experiment: Z'-LYTE SelectScreen biochemical kinase assay CDK5/p35.
For test [4], the target named is FGFR1 (Homo sapiens, UniProt P11362). As to the kind of experiment: Z'-LYTE SelectScreen biochemical kinase assay FGFR1.
Chain of FGFR1 (P11362 22-822): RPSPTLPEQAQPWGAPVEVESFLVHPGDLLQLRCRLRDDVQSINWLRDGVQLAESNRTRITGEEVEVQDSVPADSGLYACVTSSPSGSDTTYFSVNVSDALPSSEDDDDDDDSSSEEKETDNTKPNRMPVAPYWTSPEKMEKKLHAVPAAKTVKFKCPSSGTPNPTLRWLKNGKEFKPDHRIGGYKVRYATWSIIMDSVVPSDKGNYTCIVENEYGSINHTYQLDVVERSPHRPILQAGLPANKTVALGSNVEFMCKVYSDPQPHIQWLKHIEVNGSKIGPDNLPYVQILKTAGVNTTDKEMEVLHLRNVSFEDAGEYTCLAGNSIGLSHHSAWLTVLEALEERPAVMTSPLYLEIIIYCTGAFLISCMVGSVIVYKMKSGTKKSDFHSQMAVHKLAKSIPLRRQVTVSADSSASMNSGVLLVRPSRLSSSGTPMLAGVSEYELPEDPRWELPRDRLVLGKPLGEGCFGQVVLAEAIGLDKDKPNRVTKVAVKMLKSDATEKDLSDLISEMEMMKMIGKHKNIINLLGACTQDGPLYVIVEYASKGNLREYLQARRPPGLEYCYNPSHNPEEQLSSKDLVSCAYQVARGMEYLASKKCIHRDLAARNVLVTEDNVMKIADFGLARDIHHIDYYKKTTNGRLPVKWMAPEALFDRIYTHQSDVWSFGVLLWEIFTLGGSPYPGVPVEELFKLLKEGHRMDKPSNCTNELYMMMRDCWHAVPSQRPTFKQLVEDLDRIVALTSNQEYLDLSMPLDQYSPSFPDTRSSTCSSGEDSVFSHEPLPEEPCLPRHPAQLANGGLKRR
Where [5] appears, read: 10 μmolar compound concentration, ATP at Km app, read-out: ABL1 inhibition.
Setting [6] is: read-out: % Inhibition mean ABL1.
The mark [7] stands for this setting: 10 μmolar compound concentration, ATP at Km app, read-out: CDK5/p35 inhibition.
Setting [8] is: read-out: % Inhibition mean CDK5/p35.
[9] abbreviates: 10 μmolar compound concentration, ATP at Km app, read-out: FGFR1 inhibition.
Where [10] appears, read: read-out: % Inhibition mean FGFR1.

Like-named read-outs stand apart in the source and are kept apart here.

Chain of CDK5/p35 (Q00535 whole entry): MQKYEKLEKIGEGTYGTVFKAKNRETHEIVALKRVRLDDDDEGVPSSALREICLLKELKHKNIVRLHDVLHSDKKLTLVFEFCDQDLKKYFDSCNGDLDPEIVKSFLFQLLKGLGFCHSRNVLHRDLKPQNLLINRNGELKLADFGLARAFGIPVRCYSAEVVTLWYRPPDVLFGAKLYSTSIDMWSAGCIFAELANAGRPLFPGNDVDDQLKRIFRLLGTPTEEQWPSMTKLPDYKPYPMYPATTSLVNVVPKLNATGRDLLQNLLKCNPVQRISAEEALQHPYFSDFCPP
Chain of CDK5/p35 (Q15078 whole entry partner): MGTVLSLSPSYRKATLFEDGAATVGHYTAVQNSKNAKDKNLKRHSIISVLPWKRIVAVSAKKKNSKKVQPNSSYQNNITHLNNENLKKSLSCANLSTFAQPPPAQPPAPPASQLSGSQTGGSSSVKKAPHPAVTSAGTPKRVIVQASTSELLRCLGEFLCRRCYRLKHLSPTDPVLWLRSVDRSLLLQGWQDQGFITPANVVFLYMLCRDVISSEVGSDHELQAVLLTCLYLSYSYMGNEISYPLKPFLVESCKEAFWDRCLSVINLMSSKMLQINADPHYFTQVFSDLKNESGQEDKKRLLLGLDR
Chain of ABL1 (P00519 whole entry): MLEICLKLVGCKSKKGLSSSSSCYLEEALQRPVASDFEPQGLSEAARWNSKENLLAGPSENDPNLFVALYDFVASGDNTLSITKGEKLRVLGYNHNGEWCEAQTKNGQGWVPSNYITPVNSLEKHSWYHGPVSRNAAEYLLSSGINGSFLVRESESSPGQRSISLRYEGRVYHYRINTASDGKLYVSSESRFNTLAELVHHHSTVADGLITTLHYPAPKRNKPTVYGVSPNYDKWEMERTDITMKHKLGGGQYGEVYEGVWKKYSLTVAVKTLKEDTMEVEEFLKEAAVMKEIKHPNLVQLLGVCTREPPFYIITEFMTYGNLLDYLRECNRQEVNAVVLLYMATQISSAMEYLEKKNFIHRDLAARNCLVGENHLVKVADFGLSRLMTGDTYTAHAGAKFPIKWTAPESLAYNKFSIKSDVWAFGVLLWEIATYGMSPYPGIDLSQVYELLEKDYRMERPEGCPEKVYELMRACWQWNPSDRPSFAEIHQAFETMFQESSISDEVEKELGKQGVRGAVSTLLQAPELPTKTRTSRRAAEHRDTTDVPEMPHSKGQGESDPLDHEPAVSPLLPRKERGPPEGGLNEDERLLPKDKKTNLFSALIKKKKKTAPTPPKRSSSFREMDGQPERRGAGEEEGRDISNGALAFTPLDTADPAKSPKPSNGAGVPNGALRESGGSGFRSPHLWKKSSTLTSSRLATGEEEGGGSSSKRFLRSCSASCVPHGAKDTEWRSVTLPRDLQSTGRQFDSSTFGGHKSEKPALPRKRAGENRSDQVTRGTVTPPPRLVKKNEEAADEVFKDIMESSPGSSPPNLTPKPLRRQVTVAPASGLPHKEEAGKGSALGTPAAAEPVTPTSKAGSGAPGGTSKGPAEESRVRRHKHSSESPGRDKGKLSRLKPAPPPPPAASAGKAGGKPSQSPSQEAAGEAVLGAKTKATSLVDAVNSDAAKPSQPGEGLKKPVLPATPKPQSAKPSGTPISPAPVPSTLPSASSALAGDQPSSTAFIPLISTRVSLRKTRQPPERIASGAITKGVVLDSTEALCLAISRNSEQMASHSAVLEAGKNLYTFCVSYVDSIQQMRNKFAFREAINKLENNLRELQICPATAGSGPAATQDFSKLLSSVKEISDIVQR

As to `CCn1ncc2c1CCC(Nc1nc3c(-c4ccc(C)nc4)cccn3n1)C2` (stereo not drawn) [Example 67, (1-Ethyl-4,5,6,7-tetrahydro-1H-indazol-5-yl)-[8-(6-methyl-pyridin-3-yl)-[1,2,4]triazolo[1,5-a]pyridine-2-yl]-amine], the “Ratio AβTotal IC50/Aβ42 IC50” value in test [1] was 45. In addition, the inhibition at 10 µM in test [2] (setting [5]) was less than 40%; in test [2] (setting [6]) it was 11%; in test [3] (setting [7]) it was less than 40%; in test [3] (setting [8]), 35%; in test [4] (setting [9]), less than 40%; in test [4] (setting [10]) it was 21%.
Take `CCn1ncc2c1CCC(Nc1nc3c(-c4cncc(OC)c4)cccn3n1)C2` (stereo not drawn) [Example 70, (1-Ethyl-4,5,6,7-tetrahydro-1H-indazol-5-yl)-[8-(5-methoxy-pyridin-3-yl)-[1,2,4]triazolo[1,5-a]pyridine-2-yl]-amine]: the “Ratio AβTotal IC50/Aβ42 IC50” value in test [1] stood at 60. In addition, the inhibition at 10 µM in test [2] (setting [5]) was less than 40%; in test [2] (setting [6]), 15%; in test [3] (setting [7]), 40 to 80%; in test [3] (setting [8]), 58%; in test [4] (setting [9]), less than 40%; in test [4] (setting [10]), 18%.
Consider `CCc1nn(C)c2c1CCC(Nc1nc3c(-c4ccc(F)cc4C)cccn3n1)C2` (stereo not drawn) [Example 54, (3-Ethyl-1-methyl-4,5,6,7-tetrahydro-1H-indazol-6-yl)-[8-(4-fluoro-2-methyl-phenyl)-[1,2,4]triazolo[1,5-a]pyridine-2-yl]-amine], for which, in test [1], the “Ratio AβTotal IC50/Aβ42 IC50” value stood at 10. The inhibition at 10 µM in test [2] (setting [5]) was less than 40%; in test [2] (setting [6]) it was 12%; in test [3] (setting [7]) it was less than 40%; in test [3] (setting [8]), 18%; in test [4] (setting [9]), less than 40%; in test [4] (setting [10]), -3%.
In the case of `CCn1ncc2c1CCC(Nc1nc3c(-c4ccc(F)cc4)cccn3n1)C2` (stereo not drawn) [Example 55, (1-Ethyl-4,5,6,7-tetrahydro-1H-indazol-5-yl)-[8-(4-fluoro-phenyl)-[1,2,4]triazolo[1,5-a]pyridine-2-yl]-amine], in test [1], the “Ratio AβTotal IC50/Aβ42 IC50” value is listed as 120. Besides, the inhibition at 10 µM is less than 40% in test [2] (setting [5]); 21% in test [2] (setting [6]); less than 40% in test [3] (setting [7]); 13% in test [3] (setting [8]); less than 40% in test [4] (setting [9]); 12% in test [4] (setting [10]).
Regarding `CCn1ncc2c1CCC(Nc1nc3c(-c4ccc(OC)nc4)cccn3n1)C2` (stereo not drawn) [Example 71, (1-Ethyl-4,5,6,7-tetrahydro-1H-indazol-5-yl)-[8-(6-methoxy-pyridin-3-yl)-[1,2,4]triazolo[1,5-a]pyridine-2-yl]-amine], the “Ratio AβTotal IC50/Aβ42 IC50” value in test [1] was determined as 332. The inhibition at 10 µM in test [2] (setting [5]) is less than 40%; in test [2] (setting [6]), 24%; in test [3] (setting [7]), 40 to 80%; in test [3] (setting [8]) it was 53%; in test [4] (setting [9]) it was less than 40%; in test [4] (setting [10]) it was 19%.
Regarding `CCn1ncc2c1CC[C@@H](Nc1nc3c(-c4ccc(F)c(Cl)c4)cccn3n1)C2` [Example R-61, (R)-[8-(3-Chloro-4-fluoro-phenyl)-[1,2,4]triazolo[1,5-a]pyridine-2-yl]-(1-ethyl-4,5,6,7-tetrahydro-1H-indazol-5-yl)-amine], the “Ratio AβTotal IC50/Aβ42 IC50” value in test [1] came to 1098. Besides, the inhibition at 10 µM is less than 40% in test [2] (setting [5]); 3% in test [2] (setting [6]); less than 40% in test [3] (setting [7]); 25% in test [3] (setting [8]); less than 40% in test [4] (setting [9]); 15% in test [4] (setting [10]).

Source of the values: patent US11339161B2, “Triazolo pyridines as modulators of gamma-secretase” (Boehringer Ingelheim International GmbH, priority 2017, dated 2022).
